Assay [1] has as its target T1, mKCNQ2 channels (Mus musculus, UniProt Q9Z351).
T1 construct: expressed in transfected cells
As to the kind of experiment: Whole-cell patch-clamp, HEK 293 stable cell line expressing mKCNQ2 channels. It counts as cell-based. To be noted: HEK 293 mKCNQ2, Hill fit; for EC50: @ −40 mV.

The test system of assay [2] is streptozoticin-induced tactile allodynia, Sprague Dawley rats. Description: Diabetic model of neuropathic pain (streptozoticin and von Frey test). The following applies: 10 mg/kg, i.v.; von Frey thresholds over 90 min; STZ diabetic model. Type of assay: in vivo, rat. As to the method:
To test agents for activity against systemic polyneuropathy nerve injury-induced tactile allodynia, animals were treated with streptozoticin (STZ) to create a diabetic condition by selective cytotoxic action upon pancreatic β-islet cells that produce insulin following the method of Courteix, et al. (Courteix C., et al., (1993) Pain, April;53(1):81-8). In brief, male Sprague Dawley rats (wt. 200-275 g) received an injection of STZ (75 mg/kg, i.p.) and diabetes was confirmed three weeks after STZ injection by measurement of tail vein blood glucose levels. After 3-4 weeks, paw withdrawal to light touch was assessed as described by Chaplan et al. (Chaplan S. R., et al., (1994) J Neurosci Methods, July;53(1):55-63). In brief, rats are placed in a plastic cage with a wire mesh bottom and allowed to acclimate for 15-30 minutes, until cage exploration and grooming stops. The plantar surface of each hind paw is touched with a series of von Frey hairs with varying stiffness requiring a known force to buckle to determine the nociceptive threshold. Adult male Sprague Dawley rats (avg. wt. 300 g) were tested in the present study. After acclimation, baseline von Frey thresholds were assessed for the injured hindpaw at -15 min. All test compounds were delivered at 0 min by the intravenous (i.v.) route in a volume of 0.5-2 ml/kg. […] Animals were tested in one of the following 4 treatment conditions: […] Following drug administration, von Frey thresholds are measured at 15, 30, 60 and 90 min. Data were analyzed by a 2-way repeated measures analysis of variance followed by Dunnett's test (p<0.05). Experimenters were kept blind to the treatment condition of rats they tested. […] Specifically, drug effects can be described in terms Δ% MPE according to the following equation: {[…] under the curve for von Frey thresholds of the drug-treated group; AUCvehicle=area under the curve for von Frey thresholds in the vehicle group; Time=duration of post-drug testing period (90 min); and Max=maximum von Frey threshold (15 g).

Assay [3] has as its target cloned mouse KCNQ2 (mKCNQ2) (Mus musculus, UniProt Q9Z351). Description: KCNQ oocyte two-electrode voltage clamp, whole-cell outward current. Type of assay: cell-based. The following applies: 10 μM; single holding potential (−40 μM [sic]); Xenopus oocytes. Here is the method: The ability of compounds described in the present invention to open KCNQ channels and increase whole-cell outward (K^+) KCNQ-mediated currents was assessed under voltage-clamp conditions by determining their ability to increase cloned mouse KCNQ2 (mKCNQ2)-mediated, heteromultimeric KCNQ2/3 (mKCNQ2/hKCNQ3)-mediated, and human KCNQ5 (hKCNQ5)-mediated outward currents heterologously expressed in Xenopus oocytes. Oocytes were prepared and injected using standard techniques; each oocyte was injected with approximately 50 nl of mKCNQ2, or hKCNQ5 cRNA. In the case of mKCNQ2/h3 heteromultimeric channel expression, equal amounts (25-50 nL) of each cRNA were co-injected. […] Following injection, oocytes were maintained at 17° in ND96 medium consisting of (in mM): NaCl, 90; KCl, 1.0; CaCl2, 1.0; MgCl2, 1.0; HEPES, 5.0; pH 7.5. Horse serum (5%) and penicillin/streptomycin (5%) were added to the incubation medium. Recording commenced 2-6 days following mRNA injection. Prior to the start of an experiment oocytes were placed in a recording chamber and incubated in Modified Barth's Solution (MBS) consisting of (in mM): NaCl, 88; NaHCO3, 2.4; KCl, 1.0; HEPES, 10; MgSO4, 0.82; Ca(NO3)2, 0.33; CaCl2, 0.41; pH 7.5.
Oocytes were impaled with electrodes (1-2 MΩ) and standard 2-electrode voltage clamp techniques were employed to record whole-cell membrane currents. Recordings were accomplished using standard two-electrode voltage clamp techniques [Stuhmer, W., et al., Methods in Enzymology, Vol. 207: 319-339 (1992)]. Voltage-clamp protocols typically consisted of a series of voltage steps 1-5 sec duration, in +10 mV steps from a holding potential of −90 mV to a maximal potential of +40 mV; records were digitized at 5 kHz and stored on a computer using pClamp data acquisition and analysis software (Axon Instruments). Compounds were evaluated at a single concentration and at a single holding potential (−40 μM); the effect of the selected compounds of Formula I on KCNQ2 current was expressed as the percent of control current and is listed in Table I.

T1 sequence (Q9Z351 whole entry): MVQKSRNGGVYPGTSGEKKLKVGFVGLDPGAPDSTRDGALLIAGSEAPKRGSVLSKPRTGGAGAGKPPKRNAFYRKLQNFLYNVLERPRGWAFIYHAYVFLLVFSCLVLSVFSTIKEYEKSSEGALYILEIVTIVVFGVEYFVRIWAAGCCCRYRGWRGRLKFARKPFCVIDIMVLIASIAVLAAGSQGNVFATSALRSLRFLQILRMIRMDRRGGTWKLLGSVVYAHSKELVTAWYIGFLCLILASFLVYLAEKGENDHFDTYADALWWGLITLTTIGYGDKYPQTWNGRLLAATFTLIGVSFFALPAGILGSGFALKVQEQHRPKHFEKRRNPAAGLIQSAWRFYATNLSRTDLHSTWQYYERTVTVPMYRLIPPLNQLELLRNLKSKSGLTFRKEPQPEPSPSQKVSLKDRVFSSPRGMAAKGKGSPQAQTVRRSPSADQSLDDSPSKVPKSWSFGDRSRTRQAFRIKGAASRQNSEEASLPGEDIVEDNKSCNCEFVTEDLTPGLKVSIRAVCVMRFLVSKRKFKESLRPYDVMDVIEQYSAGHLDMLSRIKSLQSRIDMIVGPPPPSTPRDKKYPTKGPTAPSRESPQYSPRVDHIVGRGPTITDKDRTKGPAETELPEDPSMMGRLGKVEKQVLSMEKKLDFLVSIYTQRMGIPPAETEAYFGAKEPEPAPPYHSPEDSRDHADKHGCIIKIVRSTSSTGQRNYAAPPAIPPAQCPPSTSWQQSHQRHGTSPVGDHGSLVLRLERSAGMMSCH
Sequence of cloned mouse KCNQ2 (mKCNQ2) (Q9Z351 whole entry): as above

Regarding `C[C@H](NC(=O)/C=C/c1ccc(F)cc1)c1ccc2ccccc2c1` [Example 1, (S)-3-(4-Fluoro-phenyl)-N-(1-naphthalen-2-yl-ethyl)acrylamide], the EC50 (as a rule, the concentration at which the effect is half-maximal) in assay [1] was 9.2 µM. In assay [1] (HEK293, read-out: Imax (%)), the Emax came out at 237%.
With `C[C@H](NC(=O)/C=C/c1ccccc1)c1cccc(N2CCOCC2)c1` [Example 82, (S)-3-Phenyl-N-[1-(3-morpholin-4-yl-phenyl)ethyl]acrylamide], the “AUC (Δ% MPE)” value in assay [2] was 23 (10 mg/kg, i.v.) Δ% MPE. For the same molecule, the activity at 10 µM in assay [3] was 197%.
`C[C@H](NC(=O)/C=C/c1ccc(F)cc1)c1ccc(F)c(N2CCOCC2)c1` [Example 169, (S)-N-[1-(4-Fluoro-3-morpholin-4-yl-phenyl)-ethyl]-3-(4-fluoro-phenyl)-acrylamide] showed an EC50 in assay [1] of 1 µM. Also, the “AUC (Δ% MPE)” value in assay [2] is 12 (10 mg/kg, i.v.) Δ% MPE.

For the origin of these results see patent US6831080B2, “Cinnamide derivatives as KCNQ potassium channel modulators” (Bristol-Myers Squibb Company, priority 2001, dated 2004).
